pIC50: −log10 of the molar value.
Experiments:
[1] = In Vitro Mouse liver S9 Metabolic Stability Assay (Example 1D); type: in vitro ADME; conditions: CD-1 mouse liver S9, 1 μM compound, 1 mg/mL S9 protein, 37° C., NADPH regenerating system, UDPGA, PAPS
Protocol: CD-1 mouse liver S9 were purchased from Corning or XenoTech LLC or BioreclamationIVT, LLC or WuXi prepared. The cells were stored at −80° C. in a freezer before use. β-Nicotinamide adenine dinucleotide phosphate (NADP), Glucose 6-phosphate (G6P), Glucose 6-phosphate dehydrogenase from yeast (G6PDH), Uridine 5′-diphophoglucuronic acid trisodium salt (UDPGA) and Adenosine 3′-phosphate 5′-phosphosulfate lithium salt hydrate (PAPS) were available commercially from Sigma.
Compounds were diluted in DMSO to make 10 mM stock solution. 5 μL of this stock solution (10 mM, DMSO) was diluted with 45 μL DMSO and 450 μL 50% Methanol/Water to make intermediate stock solution (100 μM, 45% MeOH, 10% DMSO). 50 μL of intermediate stock solution was diluted with 450 μL 100 mM phosphate buffer to make a final stock solution (10 μM, 4.5% MeOH, 1% DMSO). 10 uL of final stock solution was added to 90 uL liver S9 system (final concentration of 1 μM, 0.45% MeOH, 0.1% DMSO).
Test compounds were incubated at 37° C. with liver S9 (pooled from multiple donors) at 1 μM in the presence of a NADPH regenerating system, UDPGA, and PAPS at 1 mg/mL S9 protein. Time samples (0 and 60 minutes) were removed and immediately mixed with cold acetonitrile containing internal standard (IS). Samples were analyzed by LC/MS/MS and disappearance of test compounds were assessed based on peak area ratios of analyte /IS (no standard curve). All samples were injected and analyzed using LC-MS/MS. The analyte/internal standard peak area ratios were converted to percentage remaining (% Remaining) with the following equation: % Remaining at 60 min=(Peak area ratio of analyte to IS at 60 min/Peak area ratio of analyte to IS at t=0)×100%. Table 5. Mouse Stability Data According to Example 1D.

[2] = target: T1, AHR (UniProt P35869); assay: DRE-Luciferase Reporter Assay (Alternate Method) (Example 1B); type: cell-based, murine or human; conditions: cell line and AHR activating ligand not specified
T1 construct: IC50
T1 sequence (P35869 1-848): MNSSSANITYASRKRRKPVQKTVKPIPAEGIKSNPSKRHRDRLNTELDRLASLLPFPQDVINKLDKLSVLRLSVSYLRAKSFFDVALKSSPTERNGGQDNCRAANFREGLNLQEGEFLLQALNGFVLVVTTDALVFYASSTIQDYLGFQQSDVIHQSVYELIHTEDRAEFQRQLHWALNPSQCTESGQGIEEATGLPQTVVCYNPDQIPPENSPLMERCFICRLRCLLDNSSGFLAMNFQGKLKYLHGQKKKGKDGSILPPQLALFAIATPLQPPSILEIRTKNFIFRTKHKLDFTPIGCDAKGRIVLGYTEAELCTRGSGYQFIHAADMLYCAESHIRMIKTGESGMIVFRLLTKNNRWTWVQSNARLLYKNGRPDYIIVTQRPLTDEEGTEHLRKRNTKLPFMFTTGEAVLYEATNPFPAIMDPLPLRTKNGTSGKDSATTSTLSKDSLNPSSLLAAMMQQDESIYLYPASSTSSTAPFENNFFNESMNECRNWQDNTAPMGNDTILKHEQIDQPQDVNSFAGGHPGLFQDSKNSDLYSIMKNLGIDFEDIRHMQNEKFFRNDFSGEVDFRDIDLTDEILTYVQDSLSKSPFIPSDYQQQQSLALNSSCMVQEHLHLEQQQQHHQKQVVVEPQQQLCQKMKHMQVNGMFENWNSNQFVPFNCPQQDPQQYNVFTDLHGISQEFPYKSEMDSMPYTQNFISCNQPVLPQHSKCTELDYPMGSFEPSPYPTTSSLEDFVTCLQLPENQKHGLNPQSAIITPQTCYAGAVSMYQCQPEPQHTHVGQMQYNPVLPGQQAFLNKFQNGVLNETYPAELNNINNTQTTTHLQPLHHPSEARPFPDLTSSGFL

[3] = Mouse Pharmacokinetic Study (Example 1C); type: in vivo; conditions: mouse, plasma, CD-1 mice; for Vd: read-out: Vdss
Protocol: Formulations of compounds set forth in Table 4 were administered intravenously or orally via gavage to CD-1 mice. Typically, at 0.167, 0.5, 1, 2, 4, 6, 12, and 24 hours post-dose, blood was collected and processed to plasma by centrifugation and stored at −80° C. until analysis.
Internal standard was added to each sample prior to protein precipitation with acetonitrile. The precipitates were filtered through a Phree phospholipid removal filter plate and the samples were analyzed by LC/MS/MS. A standard curve was prepared in plasma from typically from 1.0 ng/mL to 3000 ng/mL and processed in the same manner as the samples. Sample analysis was typically performed on a suitable LC/MS/MS system fitted with an analytical UPLC column and compounds eluted from the analytical column with a gradient from 30-95% 0.1% formic acid (v/v) in ACN: 0.1% formic acid (v/v) in water. Mass spectrometric detection of test compound and the internal standard was performed by MRM in positive mode. The pharmacokinetics of each compound were analyzed by Phoenix WinNonlin software (Pharsight, St. Louis, Mo.) via non-compartmental analysis.

SMILES	Mouse S9 Stability: % Remaining After 60 Minutes [1] [%]	pIC50 [2]	bioavailability ([3]; po, 30 mg/kg) [%]	AUC(0-inf) ([3]; iv, 3 mg/kg) [ng·h/mL]	AUC(0-t) ([3]; iv, 3 mg/kg) [ng·h/mL]	clearance ([3]; iv, 3 mg/kg) [mL/min/kg]	half-life ([3]; iv, 3 mg/kg) [h]	Vd ([3]; iv, 3 mg/kg) [L/kg]	AUC(0-inf) ([3]; po, 30 mg/kg) [ng·h/mL]	AUC(0-t) ([3]; po, 30 mg/kg) [ng·h/mL]	Cmax ([3]; po, 30 mg/kg) [ng/mL]	Tmax ([3]; po, 30 mg/kg) [h]	half-life ([3]; po, 30 mg/kg) [h]
CC(C)c1cnn2c(NCCc3c[nH]c4ccccc34)nc(-c3cncc(F)c3)nc12 [I-16, 2-(5-Fluoro-3-pyridyl)-N-[2-(1H-indol-3-yl)ethyl]-8-isopropyl-pyrazolo[1,5-a][1,3,5]triazin-4-amine]	2	> 6.30	–	–	–	–	–	–	–	–	–	–	–
CC(C)Oc1cc(NCCc2c[nH]c3ccccc23)nc(-c2cncc(F)c2)n1 [I-21, 2-(5-Fluoro-3-pyridyl)-N-[2-(1H-indol-3-yl)ethyl]-6-isopropoxy-pyrimidin-4-amine]	26	> 6.30	–	–	–	–	–	–	–	–	–	–	–
CC(C)c1cnn2c(N[C@H](C)Cc3c[nH]c4ccccc34)cc(-c3cncc(F)c3)nc12 [I-98b]	0	–	–	–	–	–	–	–	–	–	–	–	–
C[C@H](O)c1cnn2c(N[C@@H]3CCc4[nH]c5ccccc5c4C3)nc(-c3cncc(F)c3)nc12 [I-118]	–	–	3	368	364	136	0.6	4.9	121	107	41	1	1.9
Fc1cncc(-c2nc(N[C@@H]3CCc4[nH]c5ccccc5c4C3)c3ncccc3n2)c1 [I-126, (3R)—N-[2-(5-Fluoro-3-pyridyl)pyrido[3,2-d]pyrimidin-4-yl]-2,3,4,9-tetrahydro-1H-carbazol-3-amine]	–	> 6.30	100	1650	1460	30	8.8	17	14700	13700	1870	1	6.1
CN(C)c1cnn2c(N[C@@H]3CCc4[nH]c5ccccc5c4C3)nc(-c3cncc(F)c3)nc12 [I-129, 2-(5-Fluoro-3-pyridyl)-N8,N8-dimethyl-N4-[(3R)-2,3,4,9-tetrahydro-1H-carbazol-3-yl]pyrazolo[1,5-a][1,3,5]triazine-4,8-diamine]	–	> 6.30	53	1620	1340	31	14	22	7530	7030	1040	2	6.4
N#Cc1cnn2c(N[C@@H]3CCc4[nH]c5ccccc5c4C3)nc(-c3cncc(F)c3)nc12 [I-130, 2-(5-Fluoro-3-pyridyl)-4-[[(3R)-2,3,4,9-tetrahydro-1H-carbazol-3-yl]amino]pyrazolo[1,5-a][1,3,5]triazine-8-carbonitrile]	–	> 6.30	53	1270	1220	39	2.6	7.5	6690	6620	936	2	3.5
CC(C)c1cnn2c(N[C@H]3CCc4[nH]ccc4C3)nc(-c3cncc(F)c3)nc12 [I-137a, 2-(5-fluoro-3-pyridyl)-8-isopropyl-N-[(5S)-4,5,6,7-tetrahydro-1H-indol-5-yl]pyrazolo[1,5-a][1,3,5]triazin-4-amine]	–	> 6.30	19	2010	1920	25	8.2	6.6	3840	3780	953	0.5	3.5
CC(C)c1cnn2c(N[C@@H]3CCc4[nH]ccc4C3)nc(-c3cncc(F)c3)nc12 [I-137b, 2-(5-fluoro-3-pyridyl)-8-isopropyl-N-[(5R)-4,5,6,7-tetrahydro-1H-indol-5-yl]pyrazolo[1,5-a][1,3,5]triazin-4-amine]	–	> 6.30	28	1350	1220	37	11.2	16.6	3830	3630	476	2	5.9
Cc1cnn2c(N[C@H]3CCc4[nH]ccc4C3)nc(-c3cncc(F)c3)nc12 [I-259a, 2-(5-fluoro-3-pyridyl)-8-methyl-N-[(5S)-4,5,6,7-tetrahydro-1H-indol-5-yl]pyrazolo[1,5-a][1,3,5]triazin-4-amine]	–	> 6.30	3	842	825	59	1.2	4.7	249	237	82	0.5	1.2
O=Cc1cnn2c(NC3CCc4[nH]c5ccccc5c4C3)nc(-c3cncc(F)c3)nc12 (stereo not drawn) [I-275]	–	> 6.30	–	–	–	–	–	–	–	–	–	–	–
Fc1cncc(-c2nc(NC3CCc4[nH]c5ccccc5c4C3)n3ncc(CNC4CC4)c3n2)c1 (stereo not drawn) [I-276]	–	> 6.30	–	–	–	–	–	–	–	–	–	–	–
